US4716159A, “Pyridazino[4,3-c]-isoquinolines having anti-anxiety activity” (Gruppo Lepetit, S.p.A., priority 1983, dated 1987)
pKi: −log10 of the molar value.

Key:
benzodiazepine receptor = benzodiazepine receptor test (displacement of 3H-diazepam from rat brain receptors); type: binding; conditions: for pKi: 3H-diazepam, unit inferred; for Inhibition % of the 3H diazepam binding: test compound at 3,6 μM
Method: The anti-anxiety activity of the compounds of the present invention was first detected by submitting some representative compounds to the benzodiazepine receptor test. […] Our experiments were carried out by following the method described by H. Moand T. Okada in Life Sciences, Vol. 20, 2101-2110 (1977).
of the test compound of 3,6 μM.

rats = test: conflict test in rats (punished responding, Vogel method as modified by Lippa); type: in vivo, rat; conditions: i.p., 60 minutes after administration; for minimal effective dose: Rattus norvegicus, ip, 1 h, read-out: MED (minimal effective dose which significantly increased the number of shocks)
Method: The ability of the compounds of the present invention to increase punished responding in animals in a conflict situation, a procedure with high validity for predicting the anxiolytic effect of drugs, was assessed by testing these compounds in rats according to the method described by J. R. Vogel, B. Beer, D. E. Clody in Psycopharmacologia 21, 1-7, (1971) as modified by A. S. Lippa et al., in "Anxiolytics, Industrial Pharmacology",Vol. 3, Futura Publishing, 1979, pages 41-81.
Briefly, rats are deprived of water for 48 hours and deprived of food for 20 hours prior to testing. Sixty minutes after administration of the test compound each rat is placed in an specially equipped cage. A glucose solution is available from a tap located in the rear of the cage. A constant pulsating shocking current is connected between the grid floor and the tap. Each rat is allowed 20 seconds of non-shocked drinking, then cycles of 5 seconds shock-off and 5 seconds shock-on began. During the shock-on period each lick on the top is accompanied by shock. The number of shocks received by each animal is recorded and minimal effective doses are determined.

mice [1] = test: antipentylenetetrazole assay in mice; type: in vivo; conditions: for prevention of tonic extensor seizures (pentylenetetrazole): pentylenetetrazole 140 mg/kg s.c., compound 30 min before
Method: The antipentylenetetrazole assay in mice have been carried out by essentially following the methodology described by Berger in J. Pharm. Exptl. Ther. 104, 468, (1952). A fatal dose of pentylenetetrazole (140 mg/kg, s.c.) was administered to groups of ten mice each, treated, 30 minutes before the administration of the convulsant agent, with a selected dose of the test compound.

mice [2] = test: anti-bicuculline test in mice; type: in vivo; conditions: for prevention of seizures (bicuculline): i.p. (highest dose tested), bicuculline 2 mg/kg s.c., compound 30 min before
Method: The experiments were conducted essentially following the methodology described by P. De La Mora et R. Tapia in Biochem. Pharmac. 22, 2635-2639 (1973). A dose of bicuculline (2 mg/kg, s.c.) was administered to groups of ten mice each which had been given a fixed dose of the text compound 30 minutes before treatment. […] The significance of this fact has not yet been completely clarified since it was first described only recently for two quinoline derivatives (see G. Le Fur et al., Life Sci., 28, 1439-1448 (1981)). […] The favourable pharmacological properties of the compounds of the present invention are accompanied by a generally low toxicity, as in fact the acute toxicity of the compounds of the present invention is in general from 200 to more than 600 mg/kg, i.p. In view of the above, the use of the compounds of the present invention as anticonvulsant and antianxiety agents is a further specific object of the present invention. With the term "use" it is intended to refer to all industrially applicable aspects and acts of said use, including the embodiment of the novel compounds into pharmaceutical compositions.

[3] = 100 mg/kg (highest dose tested)

Compound	pKi (benzodiazepine receptor)	prevention of tonic extensor seizures (pentylenetetrazole) (mice [1]; 50 mg/kg (highest dose tested))	prevention of seizures (bicuculline) (mice [2]; 100 mg/kg)	Inhibition % of the 3H diazepam binding (benzodiazepine receptor) [%]	minimal effective dose (rats) [mg/kg]	also measured
3-Methyl-pyridazino[4,3-c]isoquinoline [Example 32]	6.61	uneffective	failed to prevent seizures			MED (minimal effective dose which significantly increased the number of shocks) (rats): 20 Mg/Kg
CN1C(=O)CN=C(c2ccccc2)c2cc(Cl)ccc21 [Diazepam, reference compound]						ED50 (mice [1]; Mus musculus, ip, 0.5 h, i.p., same experiment, read-out: ED50 (dose which prevents tonic extension seizures in 50% of the treated animals), pentylenetetrazole): 0.2 mg/kg; ED50 (mice [2]; Mus musculus, ip, 0.5 h, i.p., same experiment, read-out: ED50 (dose which prevents tonic extensor seizures in 50% of the treated animals), bicuculline): 0.18 mg/kg
Clc1nc2cc(-c3ccccc3)nnc2c2ccccc12 [Example 1, 6-Chloro-3-phenyl-pyridazino-[4,3-c]-isoquinoline]				-36		
CN(C)c1nc2cc(-c3ccccc3)nnc2c2ccccc12 [Example 2, 3-Phenyl-N,N-dimethyl-pyridazino-[4,3-c]-isoquinolin-6-amine]	7.55	uneffective	failed to prevent seizures		10	
CCN(C)c1nc2cc(-c3ccccc3)nnc2c2ccccc12 [Example 3, N-ethyl-3-phenyl-N-methylpyridazino-[4,3-c]-isoquinolin-6-amine]	7.19				10	prevention of tonic extensor seizures (pentylenetetrazole) (mice [1]; [3]): failed to prevent tonic extensor seizures; prevention of seizures (bicuculline) (mice [2]; 50 mg/kg): uneffective
CC(O)CN(C)c1nc2cc(-c3ccccc3)nnc2c2ccccc12 (centres unmarked) [Example 4, 1-[(3-Phenyl-pyridazino[4,3-c]isoquinolin-6-yl)methylamino]-2-propanol]	6.87				30	prevention of tonic extensor seizures (pentylenetetrazole) (mice [1]; [3]): failed to prevent tonic extensor seizures; prevention of seizures (bicuculline) (mice [2]; 50 mg/kg): uneffective
c1ccc(-c2cc3nc(N4CCCC4)c4ccccc4c3nn2)cc1 [Example 5, 3-phenyl-6-(1-pyrrolidinyl)pyridazino-[4,3-c]isoquinoline]	7.94				5	prevention of tonic extensor seizures (pentylenetetrazole) (mice [1]; [3]): failed to prevent tonic extensor seizures; prevention of seizures (bicuculline) (mice [2]; 50 mg/kg): uneffective
c1ccc(-c2cc3nc(N4CCOCC4)c4ccccc4c3nn2)cc1 [Example 6, 3-Phenyl-6-(4-morpholinyl)pyridazino[4,3-c]-isoquinoline]	6.82				15	prevention of tonic extensor seizures (pentylenetetrazole) (mice [1]; [3]): failed to prevent tonic extensor seizures; prevention of seizures (bicuculline) (mice [2]; 50 mg/kg): uneffective
CCOc1nc2cc(-c3ccccc3)nnc2c2ccccc12 [Example 9, 6-Ethoxy-3-phenyl-pyridazino [4,3-c]isoquinoline]	5.83					
CC(C)Oc1nc2cc(-c3ccccc3)nnc2c2ccccc12 [Example 10]	5.72					
COc1ccc(-c2cc3nc(N(C)C)c4ccccc4c3nn2)cc1 [Example 13, N,N-dimethyl-3-(4-methoxyphenyl)pyridazino[4,3-c]isoquinolin-6-amine]	7.20	uneffective	failed to prevent seizures		10	
COc1ccc(-c2cc3nc(N(C)CC(C)O)c4ccccc4c3nn2)cc1 (centres unmarked) [Example 14]	6.66	uneffective	failed to prevent seizures		30	
COCCN(CCOC)c1nc2cc(-c3ccc(OC)cc3)nnc2c2ccccc12 [Example 15, N,N-bis(2-methoxyethyl)-3-(4-methoxyphenyl)pyridazino[4,3-c]isoquinolin-6-amine]	5.93	uneffective	failed to prevent seizures		10	
CCOC(=O)CCCN(C)c1nc2cc(-c3ccc(OC)cc3)nnc2c2ccccc12 [Example 16]				-69		
COc1ccc(-c2cc3nc(N4CCC4)c4ccccc4c3nn2)cc1 [Example 17, 6-(1-Azetidinyl)-3-(4-methoxyphenyl)pyridazino[4,3-c]isoquinoline]	6.89	uneffective	failed to prevent seizures		30	
COc1ccc(-c2cc3nc(N4CCCC4)c4ccccc4c3nn2)cc1 [Example 18]	7.73	uneffective	failed to prevent seizures		20	
COc1ccc(-c2cc3nc(N4CCCCC4)c4ccccc4c3nn2)cc1 [Example 19, 3-(4-Methoxyphenyl)-6-(1-piperidinyl)-pyridazino[4,3-c]isoquinoline]		uneffective	failed to prevent seizures	-70	10	
COc1ccc(-c2cc3nc(N4CCOCC4)c4ccccc4c3nn2)cc1 [Example 20, 3-(4-Methoxyphenyl)-6-(4-morpholinyl)-pyridazino[4,3-c]isoquinoline]		uneffective	failed to prevent seizures	-76	30	
CCOC(=O)C1CCN(c2nc3cc(-c4ccc(OC)cc4)nnc3c3ccccc23)CC1 [Example 21]				-39		
CCOC(=O)N1CCN(c2nc3cc(-c4ccc(OC)cc4)nnc3c3ccccc23)CC1 [Example 22]				-61		
COCCOc1nc2cc(-c3ccc(OC)cc3)nnc2c2ccccc12 [Example 24, 6-(2-Methoxyethoxy)-3-(4-methoxyphenyl)pyridazino[4,3-c]isoquinoline]				-47		
Clc1ccc(-c2cc3nc(N4CCCC4)c4ccccc4c3nn2)cc1 [Example 27, 3-(4-Chlorophenyl)-6-(l-pyrrolidinyl)pyridazino[4,3-c]isoquinoline]				-63		
